In US10968172B2, “USP30 inhibitors” (Mitobridge, Inc., priority 2017, dated 2021):

Target: USP30 (Homo sapiens (Human), UniProt Q70CQ3)
Test: In vitro biochemical assay for USP30 enzyme (Ubiquitin-Rhodamine110 cleavage, fluorescence)
Details: 20 nM USP30, 15 min pre-incubation, 100 nM Ub rhodamine substrate, 2 hrs at room temperature

Sequence of USP30 (Q70CQ3 whole entry): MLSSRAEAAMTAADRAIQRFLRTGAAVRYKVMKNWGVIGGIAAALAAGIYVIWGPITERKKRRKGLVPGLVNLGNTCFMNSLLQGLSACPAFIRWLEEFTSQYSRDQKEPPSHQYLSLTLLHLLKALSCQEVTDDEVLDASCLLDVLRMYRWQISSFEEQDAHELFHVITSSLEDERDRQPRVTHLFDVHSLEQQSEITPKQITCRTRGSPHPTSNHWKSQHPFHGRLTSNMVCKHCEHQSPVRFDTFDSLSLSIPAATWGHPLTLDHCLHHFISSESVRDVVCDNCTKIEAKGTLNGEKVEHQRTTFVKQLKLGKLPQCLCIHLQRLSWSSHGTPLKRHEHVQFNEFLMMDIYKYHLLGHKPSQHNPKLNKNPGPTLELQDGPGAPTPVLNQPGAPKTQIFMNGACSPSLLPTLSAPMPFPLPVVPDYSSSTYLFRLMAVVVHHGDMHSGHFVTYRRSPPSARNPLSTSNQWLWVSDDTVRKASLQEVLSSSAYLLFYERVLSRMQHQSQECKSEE

| IC50 [µM] | Compound |
| --- | --- |
| > 10 | COc1ccc(C[C@H](NC(=O)c2cscn2)C(=O)Nc2ccc(S(=O)(=O)NC(C)(C)C)cc2)cc1 [Compound 19x, (S)-N-(1-((4-(N-(tert-butyl)sulfamoyl)phenyl)amino)-3-(4-methoxyphenyl)-1-oxopropan-2-yl)thiazole-4-carboxamide] |
| 0.02 | CC(C)(C)NS(=O)(=O)c1ccc(NC(=O)[C@H](Cc2ccncc2)NC(=O)c2ccc(F)cc2)cc1 [Compound 19y, (S)-N-(1-((4-(N-(tert-butyl)sulfamoyl)phenyl)amino)-1-oxo-3-(pyridin-4-yl)propan-2-yl)-4-fluorobenzamide] |
| > 10 | COc1ccc(C[C@H](NC(=O)c2cocn2)C(=O)Nc2ccc(S(=O)(=O)NC(C)(C)C)cc2)cc1 [Compound 19z, (S)-N-(1-((4-(N-(tert-butyl)sulfamoyl)phenyl)amino)-3-(4-methoxyphenyl)-1-oxopropan-2-yl)oxazole-4-carboxamide] |
